This note sets out measurements from ChEMBL document CHEMBL1156443, “Guanidinylated neomycin delivers large, bioactive cargo into cells through a heparan sulfate-dependent pathway” (J Biol Chem, 2007).

Active and inactive are the calls of the source. The rule behind the calls is not given here.

Data set [1] has as its system CHO. As to the kind of experiment: Cytotoxicity against CHO cells upto 100 nM after 4 days by Cell-Titer assay. In kind it is cell-based, Cricetulus griseus. The note with it: chinese hamster, 96 h.
For data set [2], the system named is CHO. Briefly: Cytotoxicity against CHO pgsA745 mutant cells upto 100 nM after 4 days by Cell-Titer assay. The class given is cell-based, Cricetulus griseus. The note with it: chinese hamster, 96 h.
Data set [3] concerns the target Fibroblast growth factor 2 (Homo sapiens, UniProt P09038). Briefly: Binding affinity to biotinylated FGF2 in CHO cells by flow cytometry. In kind it is cell-based.
The subject of data set [4] is CHO. As to the kind of experiment: Inhibition of arg9 binding to CHO cells after 1 hr by flow cytometry. The class given is cell-based. Background: Flow cytometry measures light scatter and fluorescence of single cells or particles in a stream.
Data set [5] has as its system CHO. Briefly: Inhibition of arg9 binding to CHO pgsA745 mutant cells after 1 hr by flow cytometry. The class given is cell-based.

Chain of Fibroblast growth factor 2 (P09038 143-288 limits assumed): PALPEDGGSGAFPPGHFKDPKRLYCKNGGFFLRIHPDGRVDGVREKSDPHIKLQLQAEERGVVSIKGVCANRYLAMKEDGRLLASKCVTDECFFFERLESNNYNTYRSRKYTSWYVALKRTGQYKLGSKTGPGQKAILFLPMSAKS

Turning to `N=C(N)NC[C@@H]1O[C@H](O[C@H]2[C@@H](O)[C@H](O[C@@H]3[C@@H](O)[C@H](NC(=N)N)C[C@H](NC(=N)N)[C@H]3O[C@H]3O[C@H](CNC(=N)N)[C@@H](O)[C@H](O)[C@H]3NC(=N)N)O[C@@H]2CSCCNC(=O)CCCCCNC(=O)CCCC[C@@H]2SCC3NC(=O)NC32)[C@H](NC(=N)N)[C@@H](O)[C@@H]1O` (stereo not given in full), the Activity entry in the data set on CHO [1] and with CHO [2] was “Non-toxic” each time.
For orientation: IC50 means the point on the concentration scale where inhibition reaches its midpoint. Low values mean greater potency in that assay, high ones weaker potency in that assay. In data set [3], `N=C(N)NC[C@@H]1O[C@H](O[C@H]2[C@@H](O)[C@H](O[C@@H]3[C@@H](O)[C@H](NC(=N)N)C[C@H](NC(=N)N)[C@H]3O[C@H]3O[C@H](CNC(=N)N)[C@@H](O)[C@H](O)[C@H]3NC(=N)N)O[C@@H]2CO)[C@H](NC(=N)N)[C@@H](O)[C@@H]1O` [GUANIDINONEOMYCIN] yielded an IC50 of 20 µM. The outcome in the data set with CHO [4] was Active. The result with CHO [5] was inactive.
